This note sets out measurements from patent US12637471B2, “Heterocyclic compounds, compositions, methods of preparation and uses thereof” (Organon R&D Finland Ltd, priority 2021, dated 2026).

Common to all, as to assay type: biochemical
Test [1] addresses T1, Recombinant human aldo-keto reductase family 1 member C2 (AKR1C2) protein (Homo sapiens, UniProt P52895).
T1 construct: made in house; host or cells: Sf-9 insect cells (baculovirus)
T1 sequence (P52895 1-323): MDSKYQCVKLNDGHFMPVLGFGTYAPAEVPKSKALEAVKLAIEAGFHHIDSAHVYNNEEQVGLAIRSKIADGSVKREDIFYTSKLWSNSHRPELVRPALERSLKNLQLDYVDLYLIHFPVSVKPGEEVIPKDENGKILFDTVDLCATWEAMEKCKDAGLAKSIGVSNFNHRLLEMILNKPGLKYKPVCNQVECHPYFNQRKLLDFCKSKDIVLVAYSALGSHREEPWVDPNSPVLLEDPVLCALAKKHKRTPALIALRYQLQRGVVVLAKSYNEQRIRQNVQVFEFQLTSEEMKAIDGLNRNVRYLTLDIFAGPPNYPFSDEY
As to the kind of experiment: Inhibition of the aldo-keto reductase family 1 member C2, 3H-dihydrotestosterone conversion. Particulars: inhibitor at 10 μM. The method, then: Inhibition of the Aldo-Keto Reductase Family 1 Member C2
Recombinant human aldo-keto reductase family 1 member C2 (AKR1C2) protein (GenBank Accession No. NM_001354.6) produced in Sf-9 insect cells with baculovirus was used for screening. Recombinant protein (13.6 nM/0.5 μg/ml) was incubated in 20 mM KH2PO4 pH 7.4, 1 mM EDTA, complete protease inhibitor tablet, 1 mM NADPH with 6.25 nM ^3H-labelled dihydrotestosterone for 45 min at +37° C., in the presence of the potential inhibitor at 10 μM concentration. Inhibitor stock solutions were prepared in DMSO. Final concentration of DMSO was adjusted to 1% in all samples. The enzyme reaction was stopped by addition of 10% trichloroacetic acid (final concentration 1%). Samples were filtrated through […] filtration plate (Merck). Analyses of samples was done with Waters Acquity UPLC H-class equipped with XBridge C18 column and XBridge VanGuard C18 guard column. Acetonitrile: 0.1% formic acid in water (42/58 v/v) with flow of 1.2 ml/min was used for mobile phase. The eluent was mixed with scintillant and the radioactivity was monitored in the eluate by a Scintillation Analyser. The conversion percentage of triated substrate (dihydrotestosterone) to tritiated product (5α-androstane-3α,17β-diol) for each sample was determined by the relative percentages of substrate and product in the chromatogram. The inhibition percentages of samples were calculated using following formula: […]

Test [2] concerns the target T2, Recombinant human AKR1C3 (17β-HSD5) protein (Homo sapiens, UniProt P42330).
T2 construct: made in house; host or cells: E. coli
T2 sequence (P42330 1-323): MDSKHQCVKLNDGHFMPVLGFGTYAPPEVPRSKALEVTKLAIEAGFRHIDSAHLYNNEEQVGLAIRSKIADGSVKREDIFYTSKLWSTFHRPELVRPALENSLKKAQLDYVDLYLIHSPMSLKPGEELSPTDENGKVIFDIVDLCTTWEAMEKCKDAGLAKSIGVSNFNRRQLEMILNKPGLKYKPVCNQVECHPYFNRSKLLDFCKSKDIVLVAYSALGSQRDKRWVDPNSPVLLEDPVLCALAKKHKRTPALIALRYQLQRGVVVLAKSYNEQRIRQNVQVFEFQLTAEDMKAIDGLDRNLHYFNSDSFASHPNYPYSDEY
Description: Inhibition of AKR1C3 (17β-hydroxysteroid dehydrogenase type 5) enzyme, fluorescence assay. Particulars: inhibitor at 500 nM. As for the experimental part:
Inhibition of AKR1C3 (17β-Hydroxysteroid Dehydrogenase Type 5) Enzyme
Recombinant human AKR1C3 (17β-HSD5) protein (GenBank Accession No. NM_003739.6) produced in E. coli was used for screening. Recombinant protein (27 nM/1 μg/ml) was incubated in 20 mM KH2PO4, 1 mM EDTA, complete protease inhibitor cocktail, pH 7.4 with 1 μM 9-acetyl-2,3,6,7-tetrahydro-1H,5H,11H-pyrano[2,3-f]pyrido[3,2,1-ij]quinolin-11-one and 1 mM NADPH for 60 to 120 min at RT, in the presence of the potential inhibitor at 500 nM concentration. Inhibitor stock solutions were prepared in DMSO. Final concentration of DMSO was adjusted to 1% in all samples. The samples were analysed by fluorescent measurement with Tecan Spark microplate reader at wavelengths 420 nm for excitation and 510 nm for emission. Samples were evaluated against standards of 9-(1-hydroxyethyl)-2,3,6,7-tetrahydro-1H,5H,11H-pyrano[2,3-f]pyrido[3,2,1-ij]quinolin-11-one at concentrations 1 μM-10 nM. Background fluorescence was reduced from all the samples and standards. The concentrations of formed product were calculated from the standard curve with Tecan Spark Magellan software. The formed product concentrations were used to calculate conversion percentages. The inhibition percentages for the samples were calculated from the conversion percentages.
Inhibition percentages of samples were calculated using following formula: […]

In test [3] the target is T3, 17β-Hydroxysteroid Dehydrogenase Type 2 Enzyme (17β-HSD2) (Homo sapiens, UniProt P37059).
T3 construct: made in house; host or cells: Sf-9 insect cells (baculovirus)
T3 sequence (P37059 1-387): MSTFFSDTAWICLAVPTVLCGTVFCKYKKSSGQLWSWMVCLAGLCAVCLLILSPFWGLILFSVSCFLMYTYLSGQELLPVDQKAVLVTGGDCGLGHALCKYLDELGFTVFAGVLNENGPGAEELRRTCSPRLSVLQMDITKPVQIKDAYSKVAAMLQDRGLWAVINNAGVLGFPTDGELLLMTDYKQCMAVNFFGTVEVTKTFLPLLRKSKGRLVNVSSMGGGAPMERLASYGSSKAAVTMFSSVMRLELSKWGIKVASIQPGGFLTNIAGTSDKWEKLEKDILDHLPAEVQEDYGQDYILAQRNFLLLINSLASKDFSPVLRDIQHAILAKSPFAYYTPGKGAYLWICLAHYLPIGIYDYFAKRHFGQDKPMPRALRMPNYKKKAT
As to the kind of experiment: Inhibition of the 17β-hydroxysteroid dehydrogenase type 2 enzyme, 3H-testosterone conversion. The following applies: inhibitor at 10 μM. The method, then:
Inhibition of the 17β-Hydroxysteroid Dehydrogenase Type 2 Enzyme
Recombinant human 173-HSD2 protein (GenBank Accession No. NM_002153.3) produced in Sf-9 insect cells with baculovirus was used for screening.
Recombinant protein (105 nM/4.5 μg/ml) was incubated in 20 mM KH2PO4 pH 8.5, 1 mM EDTA, complete protease inhibitor cocktail, 1 mM NAD with 56.25 nM testosterone (including ^3H-labelled testosterone) for 30 min at RT, in the presence of the potential inhibitor at 10 μM concentration. Inhibitor stock solutions were prepared in DMSO. Final concentration of DMSO was adjusted to 1% in all samples. The enzyme reaction was stopped by addition of 10% trichloroacetic acid (final concentration 1%). Samples were filtrated through […] filtration plate. Analyses of samples was done with Waters Acquity UPLC H-class equipped with XBridge C18 column and XBridge VanGuard C18 guard column. Acetonitrile: 0.1% formic acid in water (42/58 v/v) with flow of 1.2 ml/min was used for mobile phase. The eluent was mixed with scintillant and the radioactivity was monitored in the eluate by a Scintillation Analyser. The conversion percentage of tritiated substrate (testosterone) to product tritiated (androstenedione) for each sample was determined by the relative percentages of substrate and product in the chromatogram. The inhibition percentages of samples were calculated using following formula: […]

The term inhibition denotes the change of the read-out against control, counted positive when it falls. As for `N#CC(=C1CCN(C(=O)N2CCOCC2)CC1)c1ccc(F)cc1` [Compound 1, 2-(4-fluorophenyl)-2-(1-(morpholine-4-carbonyl)piperidin-4-ylidene)acetonitrile], the figures for the inhibition at 10 µM in test [1] and in test [3] were 5% and 2%, respectively. Also, the inhibition at 0.5 µM in test [2] is 99%.

In the case of `N#CC(=C1CCN(C(=O)N2CCOCC2)CC1)c1ccc(Cl)cc1` [Compound 2, 2-(4-chlorophenyl)-2-(1-(morpholine-4-carbonyl)piperidin-4-ylidene)acetonitrile], the inhibition at 10 µM turned out to be 4% in test [1] and 3% in test [3]. The inhibition at 0.5 µM in test [2] turned out to be 99%.

Regarding `N#CC(=C1CCN(C(=O)N2CCCCC2)CC1)c1ccc(F)cc1` [Compound 3, 2-(4-fluorophenyl)-2-(1-(piperidine-1-carbonyl)piperidin-4-ylidene)acetonitrile], the inhibition at 10 µM in test [1] came out at 18%; in test [3], 28%. Also, the inhibition at 0.5 µM in test [2] worked out at 95%.

As to `N#CC(=C1CCN(C(=O)N2CCC(O)CC2)CC1)c1ccc(F)cc1` [Compound 4, 2-(4-fluorophenyl)-2-(1-(4-hydroxypiperidine-1-carbonyl)piperidin-4-ylidene)acetonitrile], the inhibition at 10 µM was 0% in test [1] and 8% in test [3]. In test [2], the inhibition at 0.5 µM came out at 99%.

Turning to `CCN(CC)C(=O)N1CCC(=C(C#N)c2ccc(F)cc2)CC1` [Compound 5, 4-(cyano(4-fluorophenyl)methylene)-N,N-diethylpiperidine-1-carboxamide], the inhibition at 10 µM in test [1] and in test [3] was 15% throughout. In addition, the inhibition at 0.5 µM in test [2] was 99%.

Consider `N#CC(=C1CCN(C(=O)N2CCCC2)CC1)c1ccc(F)cc1` [Compound 6, 2-(4-fluorophenyl)-2-(1-(pyrrolidine-1-carbonyl)piperidin-4-ylidene)acetonitrile], for which the results for the inhibition at 10 µM in test [1] and in test [3] were 8% and 10%, respectively. Further, the inhibition at 0.5 µM in test [2] turned out to be 95%.

On to `CO[C@@H]1CCN(C(=O)N2CCC(=C(C#N)c3ccc(F)cc3)CC2)C1` [Compound 7, (R)-2-(4-fluorophenyl)-2-(1-(3-methoxypyrrolidine-1-carbonyl)piperidin-4-ylidene)acetonitrile], for which the inhibition at 10 µM is 9% in test [1] and 1% in test [3]. In test [2], the inhibition at 0.5 µM was 95%.

As to `COC[C@@H]1CCCN1C(=O)N1CCC(=C(C#N)c2ccc(F)cc2)CC1` [Compound 8, (S)-2-(4-fluorophenyl)-2-(1-(2-(methoxymethyl)pyrrolidine-1-carbonyl)piperidin-4-ylidene)acetonitrile], the inhibition at 10 µM in test [1] stood at 7%; in test [3], 8%. For the same molecule, the inhibition at 0.5 µM in test [2] came to 98%.

For the molecule `N#CC(=C1CCN(C(=O)N2CC[C@H](O)C2)CC1)c1ccc(F)cc1` [Compound 9, (S)-2-(4-fluorophenyl)-2-(1-(3-hydroxypyrrolidine-1-carbonyl)piperidin-4-ylidene)acetonitrile], the values for the inhibition at 10 µM in test [1] and in test [3] were 4% and 13%, respectively. Moreover, the inhibition at 0.5 µM in test [2] was 89%.

For `N#CC(=C1CCN(C(=O)N2CCCCC2)CC1)c1cc(F)cc(F)c1` [Compound 10, 2-(3,5-difluorophenyl)-2-(1-(piperidine-1-carbonyl)piperidin-4-ylidene)acetonitrile], the inhibition at 10 µM in test [1] was 10%; in test [3], 4%. In addition, the inhibition at 0.5 µM in test [2] worked out at 89%.

In the case of `N#CC(=C1CCN(C(=O)N2Cc3ccccc3C2)CC1)c1ccc(F)cc1` [Compound 11, 2-(4-fluorophenyl)-2-(1-(isoindoline-2-carbonyl)piperidin-4-ylidene)acetonitrile], the inhibition at 10 µM in test [1] came out at 17%; in test [3] it was 24%. The inhibition at 0.5 µM in test [2] amounted to 96%.

Turning to `N#CC(=C1CCN(C(=O)N2CCc3nocc3C2)CC1)c1ccc(F)cc1` [Compound 12, 2-(4-fluorophenyl)-2-(1-(4,5,6,7-tetrahydroisoxazolo[4,3-c]pyridine-5-carbonyl)piperidin-4-ylidene)acetonitrile], the inhibition at 10 µM in test [1] is 19%; in test [3], 8%. In addition, the inhibition at 0.5 µM in test [2] worked out at 99%.

In the case of `N#CC(=C1CCN(C(=O)N2CCn3nncc3C2)CC1)c1ccc(F)cc1` [Compound 13, 2-(4-fluorophenyl)-2-(1-(4,5,6,7-tetrahydro-[1,2,3]triazolo[1,5-a]pyrazine-5-carbonyl)piperidin-4-ylidene)acetonitrile], the results for the inhibition at 10 µM in test [1] and in test [3] were 19% and 7%, respectively. Besides, in test [2], the inhibition at 0.5 µM came to 99%.

On to `CN(C(=O)N1CCC(=C(C#N)c2ccc(F)cc2)CC1)C1CCOCC1` [Compound 14, 4-(cyano(4-fluorophenyl)methylene)-N-methyl-N-(tetrahydro-2H-pyran-4-yl)piperidine-1-carboxamide], for which the values for the inhibition at 10 µM in test [1] and in test [3] were 11% and 3%, respectively. Also, the inhibition at 0.5 µM in test [2] is 94%.

As for `N#CC(=C1CCN(C(=O)N2C3CCC2COC3)CC1)c1ccc(F)cc1` [Compound 15, 2-(1-(3-oxa-8-azabicyclo[3.2.1]octane-8-carbonyl)piperidin-4-ylidene)-2-(4-fluorophenyl)acetonitrile], the inhibition at 10 µM in test [1] was determined as 6%; in test [3], 11%. Besides, the inhibition at 0.5 µM in test [2] was determined as 97%.
